The numbers were not newly measured in patent US20180271924A1, “COMPOUND AND METHOD FOR REDUCING INFLAMMATION, PAIN, ALLERGY, FLU AND COLD SYMPTOMS” (priority 2018, published 2018), which cites them from elsewhere.

For data set [1] the following is noted: 36 cancer pain patients; 20 mg THC, 120 mg codeine.
The conditions of data set [2]: 5 mg THC, 50 mg codeine.
Test in data set [3]: not given
This is another data set of the same source.

Test in data set [4]: not given
The source holds these as a separate data set.

The conditions of data set [5]: extract 100, 300, 500 mg/kg.
For data set [6] the following is noted: extract 100-500 mg/kg; diclofenac 10-100 mg/kg; morphine 1-10 mg/kg.
For data set [7] the following is noted: for time of peak analgesic effect: pseudoakuammigine 5.0 mg/kg p.o., morphine 1.0 mg/kg s.c., indomethacin 2.5 mg/kg p.o.
The conditions of data set [8]: human studies.
Test in data set [9]: not given
This is another data set of the same source.

For data set [10] the following is noted: extract 100, 300, 500 mg/kg; diclofenac 10, 30, 100 mg/kg; 20 minutes observation.
In data set [11] the test system is mu-, delta- and kappa-opioid binding sites.
Data set [12] deals with ORL1-binding sites (Cavia porcellus, UniProt P47748).
The test system of data set [13] is opioid receptors. Particulars: antagonised by naloxone.
Test in data set [14]: not given
The source holds these as a separate data set.

For data set [15] the following is noted: extract 100, 300, 500 mg/kg; diazepam 0.1-1 mg/kg; caffeine 10, 30, 100 mg/kg.

Molecules are shown by their SMILES. Like-named read-outs stand apart in the source and are kept apart here.

ORL1-binding sites, sequence (P47748 whole entry): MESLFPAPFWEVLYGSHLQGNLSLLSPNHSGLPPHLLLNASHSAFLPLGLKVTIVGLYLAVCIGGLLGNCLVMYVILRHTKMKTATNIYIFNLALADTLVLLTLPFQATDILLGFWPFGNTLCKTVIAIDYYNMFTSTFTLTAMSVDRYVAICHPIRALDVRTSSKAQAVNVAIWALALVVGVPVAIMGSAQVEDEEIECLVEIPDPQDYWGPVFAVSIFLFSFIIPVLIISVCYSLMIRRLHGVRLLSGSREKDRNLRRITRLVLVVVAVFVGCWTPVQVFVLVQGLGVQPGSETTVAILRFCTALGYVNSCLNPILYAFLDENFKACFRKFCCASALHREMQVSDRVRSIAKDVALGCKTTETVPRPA

Take `CCCCCc1cc(O)c2c(c1)OC(C)(C)c1ccc(C)cc1-2` [CNB, cannabinol]: the “inhibition of PBQ-induced writhing” value (doses higher than 10 mg/kg) is reported as 40%.

In the case of `COc1ccc2c3c1O[C@H]1[C@@H](O)C=C[C@H]4[C@@H](C2)N(C)CC[C@@]341` [codeine], the “pain relief, THC versus codeine” value in data set [1] is listed as “equally effective”. The analgesic effect result in data set [2] is recorded as “analgesic effect in comparison with placebo”.

Turning to `COc1ccc2cc3[n+](cc2c1OC)CCc1cc2c(cc1-3)OCO2` [Umbellatine, umbellatine], the “analgesic activity, tail-flick” value in [3] (100 mg/kg) is on record as “clearly active”; in data set [3] (200 and 300 mg/kg), “comparable in efficacy to those of 6 mg/kg of morphine”. Further, the “analgesic activity, hot plate” value is “dose-dependently active” in [4] (10-300 mg/kg); “comparable in efficacy to that obtained with 6 mg/kg of morphine” in data set [4] (200 and 300 mg/kg).

With `COc1ccc2c3c1O[C@H]1[C@@H](O)CC[C@H]4[C@@H](C2)N(C)CC[C@@]341` [dihydrocodeine], in [5], the cough count result is “dose-dependently reduced (P<0.05) cough count” and the latency of cough result is reported as “increased significantly (P<0.01) the latency of cough”.

As for `CN1CC[C@]23c4c5ccc(O)c4O[C@H]2[C@@H](O)C=C[C@H]3[C@H]1C5` [morphine, reference compound], the “tail withdrawal latency / antinociceptive effect” value in [6] was “significant (P<0.0001) dose dependent increase in tail withdrawal latencies”. The “ED50 (analgesic)” value in [7] (on molar basis) is reported as 2.9 muM. Moreover, the “time of peak analgesic effect” value in [7] is 30 min.

For the molecule `CC(=O)Oc1cc(O[C@H](C)CCCc2ccccc2)cc2c1[C@@H]1C[C@H](O)CC[C@H]1[C@H](C)N2` [Levonantradol], in data set [8], the analgesia versus placebo entry is given as “superior to placebo” and the sedation result was “almost half the patients reported sedation”. Moreover, the “pain relief versus placebo” value in data set [9] (1.5, 2, 2.5, 3 mg intramuscular, 56 patients) is “all doses were significantly superior to placebo”. Besides, the “patients reporting at least one side-effect” value in data set [9] (in vivo) is 57%.

In the case of `C=C(C)[C@@H]1CCC(C)=C[C@H]1c1c(O)cc(CCCCC)cc1O` [CBD, cannabidiol], the “effectiveness at inhibition of PBQ-induced writhing” value (oral, 100 mg/kg) is “most effective”.

For `CCCCCc1cc(O)cc(O)c1` [olivetol], the “dose of maximal effect in the PBQ test” value (oral) is reported as “about 100 mg/kg”.

As to `O=C(O)Cc1ccccc1Nc1c(Cl)cccc1Cl` [diclofenac], the “tail withdrawal latency / antinociceptive effect” value in data set [6] was “increased tail withdrawal latencies”. In [10], the abdominal writhes result is reported as “suppressed the writhing”.

In the case of `COC(=O)C1=CO[C@@H](C)[C@@H]2CN3CCc4c([nH]c5ccccc45)[C@H]3C[C@H]12` [akuammigine], the “opioid binding (words)” value in data set [11] was “no opioid binding”; in data set [11] (listed as Akuammigine), “no affinity for any of the opioid binding sites”.

`C/C=C1/CN2CC[C@@]34c5ccccc5N(C)[C@]35OC[C@@]4(C(=O)OC)[C@H]1C[C@H]25` [pseudoakuammigine]: the “opioid binding (words)” value in [11] is recorded as “low affinity”. Also, in [11] (listed as Pseudoakuammigine), the “opioid binding (words)” value was “bound equally to both mu and delta-opioid binding sites”. For the same molecule, the “affinity for ORL1-binding sites (words)” value in data set [12] is “little affinity”. Also, the “effect on electrically-induced contractions” value in data set [13] is “inhibited the electrically-induced contractions”. For the same molecule, the “maximal inhibitory effect (anti-inflammatory)” value in [14] (50 mg kg, p.o.) is recorded as 44%. Moreover, the “activity on carrageenan-induced paw oedema” value in data set [14] (1.0, 5.0, 50 mg/kg p.o.) was “dose-dependent inhibitory activity”. In data set [7] (on molar basis), the “ED50 (analgesic)” value is 10 muM, the “times less potent than indomethacin as an analgesic” value is 1.6 times and the “times less potent than morphine as an analgesic” value was 3.5 times. In [7], the “time of peak analgesic effect” value is 180 min.

For `CCCCCc1cc(O)c2c(c1)OC(C)(C)[C@@H]1CCC(C)=C[C@@H]21` [Delta 1-THC], the “dose of maximal effect in the PBQ test” value (oral) was 10 mg/kg.

On to `COc1ccc2c(c1)c(CC(=O)O)c(C)n2C(=O)c1ccc(Cl)cc1` [indomethacin, reference compound], for which the “ED50 (analgesic)” value in data set [7] (on molar basis) is reported as 6.3 muM. Moreover, in [7], the “time of peak analgesic effect” value was 60 min.

Regarding `Cn1c(=O)c2c(ncn2C)n(C)c1=O` [caffeine], in data set [15], the “effect in open arm test” value is “anxiogenic effect”.
